In ChEMBL document CHEMBL1201862, “PubChem BioAssay data set” (2004):
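Exposure lasted 48 hours, with cells grown in 96-well plates and compounds tested at five concentrations. The concentration for 50% growth inhibition is given as GI50.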 Active and inactive are the calls of the source. Cut-off read from the data, not from the text of the source: active = GI50 up to about 1.1 µM and inactive = higher.

How the values were obtained:
Assay in all cases: DTP human tumour cell line panel, 48 h
NCI-H23 = tested on: NCI-H23
NCI-H522 = tested on: NCI-H522
SK-OV-3 = tested on: SK-OV-3
NCI-H460 = tested on: NCI-H460
M19-MEL = tested on: M19-MEL
LOX IMVI = tested on: LOX IMVI
NCI/ADR-RES = tested on: NCI/ADR-RES
COLO 205 = tested on: COLO 205
EKVX = tested on: EKVX
OVCAR-8 = tested on: OVCAR-8
M14 = tested on: M14
CCRF-CEM = tested on: CCRF-CEM
HCT-116 = tested on: HCT-116
IGROV-1 = tested on: IGROV-1
TK-10 = tested on: TK-10
UO-31 = tested on: UO-31
MOLT-4 = tested on: MOLT-4
786-0 = tested on: 786-0
NCI-H226 = tested on: NCI-H226
SN12C = tested on: SN12C
SK-MEL-28 = tested on: SK-MEL-28
RPMI-8226 = tested on: RPMI-8226
SW-620 = tested on: SW-620
OVCAR-4 = tested on: OVCAR-4
MDA-MB-435 = tested on: MDA-MB-435
HT-29 = tested on: HT-29
DMS-273 = tested on: DMS-273
U-251 = tested on: U-251
SF-295 = tested on: SF-295
SR = tested on: SR
T47D = tested on: T47D
SF-539 = tested on: SF-539
ACHN = tested on: ACHN
XF498 = tested on: XF498
K562 = tested on: K562
HOP-92 = tested on: HOP-92
HL-60 = tested on: HL-60
MDA-N = tested on: MDA-N
HCC 2998 = tested on: HCC 2998
OVCAR-3 = tested on: OVCAR-3
HOP-62 = tested on: HOP-62
BT-549 = tested on: BT-549
SNB-19 = tested on: SNB-19
OVCAR-5 = tested on: OVCAR-5
DLD-1 = tested on: DLD-1
UACC-257 = tested on: UACC-257
DU-145 = tested on: DU-145
A549 = tested on: A549
KM-20L2 = tested on: KM-20L2
A498 = tested on: A498
LXFL 529 = tested on: LXFL 529
Malme-3M = tested on: Malme-3M
UACC-62 = tested on: UACC-62
DMS-114 = tested on: DMS-114
SK-MEL-5 = tested on: SK-MEL-5
KM12 = tested on: KM12
SF-268 = tested on: SF-268
RXF 393 = tested on: RXF 393
PC-3 = tested on: PC-3
CAKI-1 = tested on: CAKI-1
HCT-15 = tested on: HCT-15
SK-MEL-2 = tested on: SK-MEL-2
MDA-MB-231 = tested on: MDA-MB-231
MCF7 = tested on: MCF7

N#C/N=C(/NCc1ccccc1)N(Cc1ccccc1)Cc1ccccc1
GI50 (NCI-H23): 19.8 µM (inactive) | GI50 (NCI-H522): 15.1 µM (inactive) | GI50 (SK-OV-3): > 10 µM (inactive) | GI50 (NCI-H460): 19.6 µM (inactive) | GI50 (M19-MEL): > 10 µM (inactive) | GI50 (LOX IMVI): 19.2 µM (inactive) | GI50 (NCI/ADR-RES): 30.3 µM (inactive) | GI50 (COLO 205): > 10 µM (inactive) | GI50 (EKVX): > 10 µM (inactive) | GI50 (OVCAR-8): 20.2 µM (inactive) | GI50 (M14): 23.4 µM (inactive) | GI50 (CCRF-CEM): 16.1 µM (inactive) | GI50 (HCT-116): 17.8 µM (inactive) | GI50 (IGROV-1): 17.4 µM (inactive) | GI50 (TK-10): 24.8 µM (inactive) | GI50 (UO-31): 16.4 µM (inactive) | GI50 (MOLT-4): 14.1 µM (inactive) | GI50 (786-0): 23.2 µM (inactive) | GI50 (NCI-H226): 22.4 µM (inactive) | GI50 (SN12C): 25.2 µM (inactive) | GI50 (SK-MEL-28): 27.5 µM (inactive) | GI50 (RPMI-8226): 22.9 µM (inactive) | GI50 (SW-620): 64 µM (inactive) | GI50 (OVCAR-4): 23.8 µM (inactive) | GI50 (MDA-MB-435): 49.1 µM (inactive) | GI50 (HT-29): > 10 µM (inactive) | GI50 (DMS-273): > 10 µM (inactive) | GI50 (U-251): 24.7 µM (inactive) | GI50 (SF-295): 15.3 µM (inactive) | GI50 (SR): 24.8 µM (inactive) | GI50 (T47D): 35 µM (inactive) | GI50 (SF-539): 23.7 µM (inactive) | GI50 (ACHN): > 10 µM (inactive) | GI50 (XF498): > 10 µM (inactive) | GI50 (K562): 26.3 µM (inactive) | GI50 (HOP-92): 24.6 µM (inactive) | GI50 (HL-60): 16.8 µM (inactive) | GI50 (MDA-N): 46.7 µM (inactive) | GI50 (HCC 2998): 32.9 µM (inactive) | GI50 (OVCAR-3): 22.6 µM (inactive) | GI50 (HOP-62): > 31.6 µM (inactive) | GI50 (BT-549): 61.4 µM (inactive) | GI50 (SNB-19): > 89.1 µM (inactive) | GI50 (OVCAR-5): 29.9 µM (inactive) | GI50 (DLD-1): > 10 µM (inactive) | GI50 (UACC-257): > 10 µM (inactive) | GI50 (DU-145): 63 µM (inactive) | GI50 (A549): 16.4 µM (inactive) | GI50 (KM-20L2): > 10 µM (inactive) | GI50 (A498): > 10 µM (inactive) | GI50 (LXFL 529): > 10 µM (inactive) | GI50 (Malme-3M): > 10 µM (inactive) | GI50 (UACC-62): 8.13 µM (inactive) | GI50 (DMS-114): > 10 µM (inactive) | GI50 (SK-MEL-5): 14.9 µM (inactive) | GI50 (KM12): 27.6 µM (inactive) | GI50 (SF-268): 22.2 µM (inactive) | GI50 (RXF 393): 27.7 µM (inactive) | GI50 (PC-3): 28.2 µM (inactive) | GI50 (CAKI-1): 28.5 µM (inactive) | GI50 (HCT-15): 20.7 µM | GI50 (SK-MEL-2): 15.2 µM (inactive) | GI50 (MDA-MB-231): 18.3 µM (inactive) | GI50 (MCF7): 36.1 µM (inactive)
